Patent EP2582674B1 (Cymabay Therapeutics, Inc., priority 2010, dated 2011)

Molecular target: T1, human GPR120 (Homo sapiens, UniProt Q5NUL3)
T1 construct: host or cells: HEK293 cells co-expressing Gqi5
T1 sequence (Q5NUL3 1-361): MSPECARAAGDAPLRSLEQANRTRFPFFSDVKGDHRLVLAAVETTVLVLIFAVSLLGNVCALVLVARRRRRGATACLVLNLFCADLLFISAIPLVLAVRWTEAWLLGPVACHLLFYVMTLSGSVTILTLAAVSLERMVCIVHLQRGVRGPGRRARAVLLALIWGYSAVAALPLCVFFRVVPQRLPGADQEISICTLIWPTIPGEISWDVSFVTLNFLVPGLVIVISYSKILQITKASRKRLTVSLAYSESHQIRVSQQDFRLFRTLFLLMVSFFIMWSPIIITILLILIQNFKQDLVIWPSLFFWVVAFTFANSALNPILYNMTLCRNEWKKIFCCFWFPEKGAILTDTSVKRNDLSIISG
Assay: Intracellular Ca2+ assay in human GPR120 stable cell line (FLIPR Calcium 4 dye, Flexstation)
Type: cell-based
Settings: % activity at 2.5 µM compared to the maximal activity of the compound of Example 25 at 2.5 µM (=100%); HEK293 cells co-expressing Gqi5
Protocol: Human GPR120 stable cell line was purchased from Multispan Inc (26219 Eden Landing Road, Hayward, CA94545). This GPR120 cell line was generated in HEK293 cells co-expressing Gqi5. In this cell line, the Flag epitope tag (DYKDDDDK) was fused to the amino terminus of human GPR120 protein.
The concentration of intracellular Ca^2+ was measured as described below. Human GPR120 cells were plated in 96 well plates (Poly-D-Lysine coated black/clear Plate, Greiner Bio-One) at 70,000 cells per well and cultured overnight in conditions of 37°C and 5% CO2. A Ca^2+ assay dye stock solution was prepared by adding 10 mL of assay buffer (HBSS/20mM HEPES, pH 7.4) to FLIPR Calcium 4 Assay Bulk Kit (Molecular Devices). The 10 mL of Ca^2+ assay dye solution was prepared by further diluting 0.5 mL of Ca^2+ assay dye stock solution with 10 mL of assay buffer. The medium of the cells was removed and immediately 100 µL of the Ca^2+ assay dye solution was dispensed into each well followed by incubation at 37°C and 5% CO2 for 50 minutes to incorporate the Ca^2+ dye into the cells. The cell plate was then placed in the Flexstation (Molecular Devices) for 20 minutes at 37°C. Compounds were dissolved in 100% DMSO and diluted to desired concentrations with assay buffer and placed in the Flexstation simultaneously with the cell plate for 20 minute incubation at 37°C prior to reading. Fluorescence intensity was measured immediately following compound addition (25 µL/well) on the Flexstation at an excitation wavelength of 485 nm and an emission wavelength of 525 with 515 nm auto cutoff. The resulting increase in fluorescence intensities corresponds to increases in intracellular Ca^2+ levels.
Compounds were dissolved in 100% DMSO to a concentration of 20 mM to provide stock solutions. To determine activity against human GPR120, compounds were added with human GPR120 stably expressing cells (described above), at eight desired concentrations ranging from 0.00001 to 20 µM, in 96 well plates and fluorescence intensities were measured for 90 seconds with 2-second intervals. An EC50 value (concentration of the GPR120 agonist where 50% of the agonist's maximal activity is observed) was calculated using the changes (Max-Min) of fluorescence intensity.
To determine percent activity for a tested compound, the fluorescence intensity value obtained at a particular concentration were compared to the maximal fluorescence intensity value obtained for reference compound GW9508 (4-[[(3-phenoxyphenyl)methyl]amino]benzene propanoic acid; British Journal of Pharmacology 2006 148, 619-628) or the compound of Example 25. When GW9508 was used as the reference compound, the maximal activity of GW9508 at 6.7µM was designated as 100% activity. When the compound of Example 25 was used as the reference compound, the maximal activity of the compound of Example 25 at 2.5 µM was designated as 100% activity. Typically, the GW9508 activity reached a maximum at a concentration of approximately 6.7 µM and typically the compound of Example 25 reached a maximum activity at approximately 2.5µM. […]

In order of falling “% Activity (Ex. 25 Reference Compound)” value:
1. CC1(C)Cc2cc(F)cc(COc3ccc(C4CC4C(=O)O)cc3)c2O1 (stereo not drawn) [Example 131B, 2-(4-((5-fluoro-2,2-dimethyl-2,3-dihydrobenzofuran-7-yl)methoxy)phenyl) cyclopropanecarboxylic acid]  105.8%
2. CC1(C)Cc2cc(F)cc(COc3c(F)cc(CC4CC4C(=O)O)cc3F)c2O1 (single isomer, unassigned) [Example 184A, 2-(3,5-difluoro-4-((5-fluoro-2,2-dimethyl-2,3-dihydrobenzofuran-7-yl)methoxy)benzyl)cyclopropanecarboxylic acid]  95.58%

Same assay, conditions: HEK293, % activity at 2.5 µM compared to the maximal activity of the compound of Example 25 at 2.5 µM (=100%); HEK293 cells co-expressing Gqi5; read-out: % Activity (Ex. 25 Reference Compound)

In order of rising activity at 2.5 µM:
1. CN(C)Cc1cc(OCc2cc(F)cc3c2OC(C)(C)C3)ccc1CCC(=O)O [Example 122, 3-(2-((dimethylamino)methyl)-4-((5-fluoro-2,2-dimethyl-2,3-dihydrobenzofuran-7-yl)methoxy)phenyl)propanoic acid]  3.58%
2. CC1(C)Cc2cc(F)cc(COc3ccc4c(CC(=O)O)cc(=O)oc4c3)c2O1 [Example 263, 2-(7-((5-fluoro-2,2-dimethyl-2,3-dihydrobenzofuran-7-yl)methoxy)-2-oxo-2H-chromen-4-yl)acetic acid]  5.98%
3. CC(Cc1cc(F)c(OCc2cccc3cn[nH]c23)c(F)c1)C(=O)O (stereo not drawn) [Example 260, 3-(4-((1H-indazol-7-yl)methoxy)-3,5-difluorophenyl)-2-methylpropanoic acid]  16.7%
4. CC(=O)NCCOC(=O)C(C)Cc1ccc(OCc2cc(Cl)cc3c2OC(C)(C)C3)c(C(F)(F)F)c1 (stereo not drawn) [Example 126, 2-acetamidoethyl 3-(4-((5-chloro-2,2-dimethyl-2,3-dihydrobenzofuran-7-yl)methoxy)-3-(trifluoromethyl)phenyl)-2-methylpropanoate]  47%
5. CC(Cc1cc(F)c(OCc2cc(OCc3ccccc3)cc3c2OC(C)(C)C3)c(F)c1)C(=O)O (stereo not drawn) [Example 111, 3-(4-((5-(benzyloxy)-2,2-dimethyl-2,3-dihydrobenzofuran-7-yl)methoxy)-3,5-difluorophenyl)-2-methylpropanoic acid]  51.5%
6. CCN(CC)c1cc(COc2ccc(CC(C)C(=O)O)cc2)c2c(c1)CC(C)(C)O2 (stereo not drawn) [Example 89, 3-(4-((5-(diethylamino)-2,2-dimethyl-2,3-dihydrobenzofuran-7-yl)methoxy)phenyl)-2-methylpropanoic acid]  82.3%
7. CC(CC(=O)O)Cc1ccc(OCc2cc(F)cc3c2OC(C)(C)C3)cc1 (stereo not drawn) [Example 182, 4-(4-((5-fluoro-2,2-dimethyl-2,3-dihydrobenzofuran-7-yl)methoxy)phenyl)-3-methylbutanoic acid]  98.4%
8. CC1(C)Cc2cc(Cl)cc(COc3ccc4c(c3)CC[C@@H]4CC(=O)O)c2O1 [Example 179, (R)-2-(5-((5-chloro-2,2-dimethyl-2,3-dihydrobenzofuran-7-yl)methoxy)-2,3-dihydro-1H-inden-1-yl)acetic acid]  105%
9. CC(C)Oc1ncccc1COc1ccc2c(c1)CCC2CC(=O)O (stereo not drawn) [Example 259, 2-(5-((2-isopropoxypyridin-3-yl)methoxy)-2,3-dihydro-1H-inden-1-yl)acetic acid]  118%
10. CC1(C)Cc2cc(F)cc(COc3ccc4cc(C(=O)O)ccc4c3)c2O1 [Example 114, 6-((5-fluoro-2,2-dimethyl-2,3-dihydrobenzofuran-7-yl)methoxy)-2-naphthoic acid]  124%
11. [2H]C1([2H])c2cc(Cl)cc(COc3ccc(CC(C)C(=O)O)cc3C(F)(F)F)c2OC1(C)C (stereo not drawn) [Example 147, 3-(4-((3,3-dideuterio-5-chloro-2,2-dimethyl-2,3-dihydrobenzofuran-7-yl)methoxy)-3-(trifluoromethyl)phenyl)-2-methylpropanoic acid]  139%
12. CC(Cc1cc(F)c(OCc2c(F)c(F)cc3c2OC(C)(C)C3)c(F)c1)C(=O)O (stereo not drawn) [Example 42, 3-(4-((5,6-difluoro-2,2-dimethyl-2,3-dihydrobenzofuran-7-yl)methoxy)-3,5-difluorophenyl)-2-methylpropanoic acid]  141%
13. CC(Cc1ccc(NCc2cc(F)cc3c2OC(C)(C)C3)cc1)C(=O)O (stereo not drawn) [Example 67, 3-(4-(((5-fluoro-2,2-dimethyl-2,3-dihydrobenzofuran-7-yl)methyl)amino)phenyl)-2-methylpropanoic acid]  142%
14. CCc1c(CCC(=O)O)ccc(OCc2cc(F)cc3c2OC(C)(C)C3)c1F [Example 216, 3-(2-ethyl-3-fluoro-4-((5-fluoro-2,2-dimethyl-2,3-dihydrobenzofuran-7-yl)methoxy)phenyl)propanoic acid]  144%
15. CC1(C)Cc2cc(Cl)cc(CNc3ccc(CCC(=O)O)cc3)c2O1 [Example 127, 3-(4-(((5-chloro-2,2-dimethyl-2,3-dihydrobenzofuran-7-yl)methyl)amino)phenyl) propanoic acid]  153%
16. [2H]C([2H])(C(=O)O)C([2H])([2H])c1ccc(OCc2cc(F)cc3c2OC(C)(C)C3)c(F)c1CC [Example 243, 3-(2-ethyl-3-fluoro-4-((5-fluoro-2,2-dimethyl-2,3-dihydrobenzofuran-7-yl)methoxy)phenyl)-2,2,3,3-tetradeuteriopropanoic acid]  155%

Same assay, conditions: HEK293, % activity at 5 µM compared to the maximal activity of GW9508 at 6.7 µM (=100%); HEK293 cells co-expressing Gqi5; read-out: %Activity (GW9508 Reference Compound)

In order of rising activity at 5 µM:
1. CC(Cc1cc(F)c(OCc2cc(Cl)cc3c2OC(C)(C)C3)c(F)c1)C(=O)O (stereo not drawn) [Example 38, 3-(4-((5-chloro-2,2-dimethyl-2,3-dihydrobenzofuran-7-yl)methoxy)-3,5-difluorophenyl)-2-methylpropanoic acid]  83.4%
2. CC1(C)Cc2cccc(COc3c(F)cc(CCC(=O)O)cc3F)c2O1 [Example 25, 3-(4-((2,2-dimethyl-2,3-dihydrobenzofuran-7-yl)methoxy)-3,5-difluorophenyl)propanoic acid]  102%
3. COc1cc(CC(C)C(=O)O)ccc1OCc1cc(Cl)cc2c1OC(C)(C)C2 (stereo not drawn) [Example 15, 3-(4-((5-chloro-2,2-dimethyl-2,3-dihydrobenzofuran-7-yl)methoxy)-3-methoxyphenyl)-2-methylpropanoic acid]  109%
4. CC(Cc1cc(F)c(OCc2cccc3c2OC(C)(C)C3)c(F)c1)C(=O)O (stereo not drawn) [Example 23, 3-(4-((2,2-dimethyl-2,3-dihydrobenzofuran-7-yl)methoxy)-3,5-difluorophenyl)-2-methylpropanoic acid]  113%
5. CC(Cc1cc(F)c(OCc2cc(F)cc3c2OC(C)(C)C3)c(F)c1)C(=O)O (stereo not drawn) [Example 18, 3-(3,5-difluoro-4-((5-fluoro-2,2-dimethyl-2,3-dihydrobenzofuran-7-yl)methoxy)phenyl)-2-methylpropanoic acid]  130%
6. CC(Cc1cc(F)c(OCc2ccc(C(F)(F)F)c3c2OC(C)(C)C3)c(F)c1)C(=O)O (stereo not drawn) [Example 32, 3-(4-((2,2-dimethyl-4-(trifluoromethyl)-2,3-dihydrobenzofuran-7-yl)methoxy)-3,5-difluorophenyl)-2-methylpropanoic acid]  143%

Same assay, conditions: eight concentrations from 0.00001 to 20 µM; changes (Max-Min) of fluorescence intensity

`CC(Cc1cc(F)c(OCc2cc(OCc3ccccc3)cc3c2OC(C)(C)C3)c(F)c1)C(=O)O` (stereo not drawn) [Example 111, 3-(4-((5-(benzyloxy)-2,2-dimethyl-2,3-dihydrobenzofuran-7-yl)methoxy)-3,5-difluorophenyl)-2-methylpropanoic acid] and `CC(Cc1cc(F)c(OCc2c(F)c(F)cc3c2OC(C)(C)C3)c(F)c1)C(=O)O` (stereo not drawn) [Example 42, 3-(4-((5,6-difluoro-2,2-dimethyl-2,3-dihydrobenzofuran-7-yl)methoxy)-3,5-difluorophenyl)-2-methylpropanoic acid] fall in the same range of EC50: 1 to 10 µM for the first, 1 to 10 µM for the second.

Same assay, conditions: typical value, reference compounds of the Ca2+ assay

In the case of `CC1(C)Cc2cccc(COc3c(F)cc(CCC(=O)O)cc3F)c2O1` [Example 25, 3-(4-((2,2-dimethyl-2,3-dihydrobenzofuran-7-yl)methoxy)-3,5-difluorophenyl)propanoic acid], the “concentration at which activity reached a maximum” value is reported as “approximately 2.5 µM”.
